Experimental data published in PubChem BioAssay (NCI).
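1) Cells in 96-well plates. 2) Compound, 48 h, 5 concentrations. 3) Linear interpolation between surrounding doses. 4) Unreached endpoint = highest concentration. TGI is the concentration that stops growth completely.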

Key:
Test in all cases: NCI tumour cell line growth inhibition, 48 h
MDA-MB-231 breast = tested on: MDA-MB-231 breast
HOP-62 NSCLC = tested on: HOP-62 NSCLC
SNB-19 CNS = tested on: SNB-19 CNS
DU-145 prostate = tested on: DU-145 prostate
K-562 leukemia = tested on: K-562 leukemia
786-0 renal = tested on: 786-0 renal
MOLT-4 leukemia = tested on: MOLT-4 leukemia
HL-60(TB) leukemia = tested on: HL-60(TB) leukemia
SW-620 colon = tested on: SW-620 colon
HCT-116 colon = tested on: HCT-116 colon
SK-MEL-2 melanoma = tested on: SK-MEL-2 melanoma
KM12 colon = tested on: KM12 colon
HOP-92 NSCLC = tested on: HOP-92 NSCLC
EKVX NSCLC = tested on: EKVX NSCLC
NCI/ADR-RES ovarian = tested on: NCI/ADR-RES ovarian
SR leukemia = tested on: SR leukemia
MDA-MB-435 = tested on: MDA-MB-435
SK-MEL-5 melanoma = tested on: SK-MEL-5 melanoma
SK-MEL-28 melanoma = tested on: SK-MEL-28 melanoma
ACHN renal = tested on: ACHN renal
CCRF-CEM leukemia = tested on: CCRF-CEM leukemia
RPMI-8226 leukemia = tested on: RPMI-8226 leukemia
SNB-75 CNS = tested on: SNB-75 CNS
TK-10 renal = tested on: TK-10 renal
HS 578T breast = tested on: HS 578T breast
T-47D breast = tested on: T-47D breast
OVCAR-5 ovarian = tested on: OVCAR-5 ovarian
BT-549 breast = tested on: BT-549 breast
SF-539 CNS = tested on: SF-539 CNS
HT29 colon = tested on: HT29 colon
HCC-2998 colon = tested on: HCC-2998 colon
MALME-3M melanoma = tested on: MALME-3M melanoma
UO-31 renal = tested on: UO-31 renal
MDA-N = tested on: MDA-N
MCF7 breast = tested on: MCF7 breast
HCT-15 colon = tested on: HCT-15 colon
LOX IMVI melanoma = tested on: LOX IMVI melanoma
SF-268 CNS = tested on: SF-268 CNS
M14 melanoma = tested on: M14 melanoma
UACC-257 melanoma = tested on: UACC-257 melanoma
NCI-H23 lung = tested on: NCI-H23 lung
OVCAR-8 ovarian = tested on: OVCAR-8 ovarian
PC-3 prostate = tested on: PC-3 prostate
A498 renal = tested on: A498 renal
CAKI-1 renal = tested on: CAKI-1 renal
OVCAR-3 ovarian = tested on: OVCAR-3 ovarian
U251 CNS = tested on: U251 CNS
NCI-H460 lung = tested on: NCI-H460 lung
IGROV1 ovarian = tested on: IGROV1 ovarian
RXF 393 renal = tested on: RXF 393 renal
SF-295 CNS = tested on: SF-295 CNS
UACC-62 melanoma = tested on: UACC-62 melanoma
SK-OV-3 ovarian = tested on: SK-OV-3 ovarian
A549 NSCLC = tested on: A549 NSCLC
NCI-H522 lung = tested on: NCI-H522 lung
SN12C renal = tested on: SN12C renal
COLO 205 colon = tested on: COLO 205 colon
OVCAR-4 ovarian = tested on: OVCAR-4 ovarian

Molecule COc1ccc(Nc2nc3cc(C(F)(F)F)ccc3n3cccc23)cc1OC has a TGI (MDA-MB-231 breast) of 36.5 µM, a TGI (HOP-62 NSCLC) of 48.7 µM and a TGI (SNB-19 CNS) of 60.9 µM. The TGI (DU-145 prostate) was 52.6 µM, the TGI (K-562 leukemia) was 52.6 µM and the TGI (786-0 renal) was 24.7 µM. For the same molecule, the TGI (MOLT-4 leukemia) was 37.8 µM, the TGI (HL-60(TB) leukemia) was 67 µM and the TGI (SW-620 colon) was > 100 µM. It also gave a TGI (HCT-116 colon) of 27.4 µM, a TGI (SK-MEL-2 melanoma) of 30.9 µM and a TGI (KM12 colon) of 34 µM. It also gave a TGI (HOP-92 NSCLC) of 47.5 µM, a TGI (EKVX NSCLC) of 58.5 µM and a TGI (NCI/ADR-RES ovarian) of 50.1 µM. The TGI (SR leukemia) was 34.9 µM, the TGI (MDA-MB-435) was 36.3 µM and the TGI (SK-MEL-5 melanoma) was 27.6 µM. For the same molecule, the TGI (SK-MEL-28 melanoma) was > 100 µM, the TGI (ACHN renal) was 74.3 µM and the TGI (CCRF-CEM leukemia) was > 100 µM. The TGI (RPMI-8226 leukemia) was 55.1 µM, the TGI (SNB-75 CNS) was 39.5 µM and the TGI (TK-10 renal) was 49 µM. The TGI (HS 578T breast) was > 100 µM, the TGI (T-47D breast) was 34.9 µM and the TGI (OVCAR-5 ovarian) was 58 µM. It also gave a TGI (BT-549 breast) of 56.1 µM, a TGI (SF-539 CNS) of 34 µM and a TGI (HT29 colon) of 24.1 µM. It also gave a TGI (HCC-2998 colon) of 27.3 µM, a TGI (MALME-3M melanoma) of 54.4 µM and a TGI (UO-31 renal) of 63.4 µM. The TGI (MDA-N) was 29.3 µM, the TGI (MCF7 breast) was 51.5 µM and the TGI (HCT-15 colon) was 56.1 µM. The TGI (LOX IMVI melanoma) was 15.8 µM, the TGI (SF-268 CNS) was > 100 µM and the TGI (M14 melanoma) was 31.3 µM. For the same molecule, the TGI (UACC-257 melanoma) was 34.8 µM, the TGI (NCI-H23 lung) was 43.2 µM and the TGI (OVCAR-8 ovarian) was 87.8 µM. For the same molecule, the TGI (PC-3 prostate) was 26.8 µM, the TGI (A498 renal) was 32.6 µM and the TGI (CAKI-1 renal) was > 100 µM. For the same molecule, the TGI (OVCAR-3 ovarian) was 54 µM, the TGI (U251 CNS) was 28.6 µM and the TGI (NCI-H460 lung) was 28.7 µM. The TGI (IGROV1 ovarian) was > 100 µM, the TGI (RXF 393 renal) was 29 µM and the TGI (SF-295 CNS) was 30.1 µM. It also gave a TGI (UACC-62 melanoma) of 28.9 µM, a TGI (SK-OV-3 ovarian) of 92.1 µM and a TGI (A549 NSCLC) of 50.8 µM. The TGI (NCI-H522 lung) was 41.5 µM.
With CC1=C(Cc2ccccc2)C(Cc2ccccc2)=C(C)S1=O the TGI (MDA-MB-231 breast) was 52.3 µM, the TGI (HOP-62 NSCLC) was > 100 µM and the TGI (SNB-19 CNS) was > 100 µM. The TGI (DU-145 prostate) was > 100 µM, the TGI (K-562 leukemia) was > 100 µM and the TGI (786-0 renal) was 71 µM. The TGI (MOLT-4 leukemia) was 41.5 µM, the TGI (HL-60(TB) leukemia) was 34.6 µM and the TGI (SW-620 colon) was > 100 µM. For the same molecule, the TGI (HCT-116 colon) was 74.7 µM, the TGI (SK-MEL-2 melanoma) was 35.1 µM and the TGI (KM12 colon) was 36.5 µM. The TGI (HOP-92 NSCLC) was > 100 µM, the TGI (EKVX NSCLC) was 46.9 µM and the TGI (NCI/ADR-RES ovarian) was 51.7 µM. The TGI (SR leukemia) was 53.2 µM, the TGI (MDA-MB-435) was 35.6 µM and the TGI (SK-MEL-5 melanoma) was 30.1 µM. The TGI (SK-MEL-28 melanoma) was > 100 µM, the TGI (ACHN renal) was > 100 µM and the TGI (CCRF-CEM leukemia) was 49.9 µM. For the same molecule, the TGI (RPMI-8226 leukemia) was 54.4 µM, the TGI (SNB-75 CNS) was 54.6 µM and the TGI (TK-10 renal) was 76.2 µM. The TGI (HS 578T breast) was > 100 µM, the TGI (SN12C renal) was 84.1 µM and the TGI (T-47D breast) was 59.1 µM. For the same molecule, the TGI (OVCAR-5 ovarian) was 73.2 µM, the TGI (BT-549 breast) was 92.4 µM and the TGI (SF-539 CNS) was > 100 µM. For the same molecule, the TGI (HT29 colon) was 39.4 µM, the TGI (HCC-2998 colon) was 42.4 µM and the TGI (MALME-3M melanoma) was > 100 µM. The TGI (UO-31 renal) was > 100 µM, the TGI (MDA-N) was 71.2 µM and the TGI (MCF7 breast) was 60 µM. For the same molecule, the TGI (HCT-15 colon) was > 100 µM, the TGI (LOX IMVI melanoma) was 50.9 µM and the TGI (SF-268 CNS) was > 100 µM. For the same molecule, the TGI (M14 melanoma) was 46.3 µM, the TGI (UACC-257 melanoma) was 48.5 µM and the TGI (NCI-H23 lung) was 95.7 µM. For the same molecule, the TGI (OVCAR-8 ovarian) was > 100 µM, the TGI (PC-3 prostate) was 54.1 µM and the TGI (COLO 205 colon) was 43.1 µM. For the same molecule, the TGI (OVCAR-4 ovarian) was > 100 µM, the TGI (A498 renal) was 63.7 µM and the TGI (CAKI-1 renal) was > 100 µM. The TGI (OVCAR-3 ovarian) was > 100 µM, the TGI (U251 CNS) was > 100 µM and the TGI (NCI-H460 lung) was 99.1 µM. For the same molecule, the TGI (IGROV1 ovarian) was > 100 µM, the TGI (RXF 393 renal) was 55.1 µM and the TGI (SF-295 CNS) was > 100 µM. The TGI (UACC-62 melanoma) was 34.3 µM, the TGI (SK-OV-3 ovarian) was > 100 µM and the TGI (A549 NSCLC) was > 100 µM. The TGI (NCI-H522 lung) was 78.8 µM.
